Test results published in patent publication US9345703B2, “Kappa opioid receptor effectors and uses thereof” (University of Kansas, priority 2011, dated 2016).

Key:
[1] = target: MOR (Homo sapiens, UniProt P35372); test: High content imaging β-arrestin translocation assay, MOR antagonist (MOR HCS); assay type: cell-based; conditions: antagonist; average; read-out: Potency, Antitarget MOR HCS
Source text: (§1) In this campaign, two assay platforms were employed to evaluate KOR activity and selectivity: the KOR1 DISCOVERX β-Arrestin […] assay and an imaging based β-arrestin translocation assay for confirmatory and selectivity assays. The KOR1 DISCOVERX β-Arrestin […] assay is a commercial platform for direct measurement of GPCR (G protein-coupled receptor) activation by detection of β-Arrestin binding to the KOR. […] In cells that stably express these fusion proteins, ligand stimulation results in the recruitment of β-Arrestin by the GPCR. This interaction encourages the complementation of the two β-galactosidase fragments resulting in the formation of a functional enzyme that converts substrate in the assay medium to a detectable signal. The imaging based high-content β-arrestin translocation assay is based upon the redistribution of β-Arrestin linked to green fluorescent protein (GFP) to the cell surface and detection (Barak, et al. (1997) J. Biol. Chem. 272:27497-27500).
(§2) Initially, a portion (approximately 290,000 compounds) of the MLSMR compound collection was tested in the KOR1 DISCOVERX β-arrestin primary kappa opioid (KOP) agonist and antagonist screens (PUBCHEM AID 1777 and 1778, respectively) at a single concentration point (10 μM). […] These compounds were concurrently tested in a β-galactosidase counterscreen assay (PUBCHEM AID 1966) to assess the possibility that these compounds might inhibit the reporting enzyme. […] The KOR:DOR:MOR selectivity of the compounds was determined using the analogous β-arrestin translocation assays for the DOR (PUBCHEM AID 2370 and 2357, for agonists and antagonist, respectively) and the MOR (PUBCHEM AID 2352 and 2420, for agonists and antagonists, respectively).

[2] = target: DOR (Homo sapiens, UniProt P41143); test: High content imaging β-arrestin translocation assay, DOR antagonist (DOR HCS); assay type: cell-based; conditions: antagonist; average; read-out: Potency, Antitarget DOR HCS
DOR, sequence (P41143 whole entry): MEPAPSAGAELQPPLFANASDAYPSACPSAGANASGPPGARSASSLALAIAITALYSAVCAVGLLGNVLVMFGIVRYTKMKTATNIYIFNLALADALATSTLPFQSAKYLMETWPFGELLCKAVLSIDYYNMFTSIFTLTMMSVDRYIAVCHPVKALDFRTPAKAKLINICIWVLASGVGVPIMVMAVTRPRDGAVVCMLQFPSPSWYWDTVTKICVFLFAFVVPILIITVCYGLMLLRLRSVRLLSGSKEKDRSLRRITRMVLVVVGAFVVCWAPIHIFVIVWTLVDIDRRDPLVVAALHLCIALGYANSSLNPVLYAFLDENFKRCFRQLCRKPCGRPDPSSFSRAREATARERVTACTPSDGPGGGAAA
Source text: as §1, §2

MOR, sequence (P35372 whole entry, the tested form may be a part): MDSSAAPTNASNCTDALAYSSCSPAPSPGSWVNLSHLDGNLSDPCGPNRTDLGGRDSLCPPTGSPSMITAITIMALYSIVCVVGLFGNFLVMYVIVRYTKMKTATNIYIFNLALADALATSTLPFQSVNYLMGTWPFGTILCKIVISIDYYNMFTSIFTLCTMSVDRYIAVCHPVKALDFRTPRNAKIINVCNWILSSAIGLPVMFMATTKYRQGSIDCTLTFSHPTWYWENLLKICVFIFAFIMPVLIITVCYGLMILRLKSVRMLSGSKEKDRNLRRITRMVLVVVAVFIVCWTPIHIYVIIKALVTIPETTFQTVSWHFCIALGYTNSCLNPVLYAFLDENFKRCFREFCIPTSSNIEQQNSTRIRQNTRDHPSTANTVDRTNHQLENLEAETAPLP

Question: Which results are given for `COc1ccc(N2CCN(CCCNC(=O)Cn3c(=O)c4cccn4c4c(C)ccnc43)CC2)cc1` [Compound 1{3}, N-(3-(4-(4-Methoxyphenyl)piperazin-1-yl)propyl)-2-(1-methyl-6-oxopyrido[2,3-e]pyrrolo[1,2-a]pyrazin-5(6H)-yl)acetamide]?
Answer: IC50 [1]: > 32 µM; IC50 [2]: > 32 µM
